Assay results taken from paper PMC6429214, “Design, Synthesis and Biological Evaluation of Isoxazole-Based CK1 Inhibitors Modified with Chiral Pyrrolidine Scaffolds” (Molecules, 2019).

Columns and labels:
Experiment in all cases: 33PanQinase panel
Assay type in all cases: biochemical
CDC42BPA = target: T1, CDC42BPA (Homo sapiens, UniProt Q5VT25); settings: read-out: Residual Activity (%)
T1 construct: purchased ProQinase
Method in brief: (§1)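 Kinases were screened with the inhibitor at a single concentration of 1 µM. Activity was measured radiometrically with 33P, and each reaction mix contained 1% DMSO. Data are expressed as percentage residual activity compared with DMSO control.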

DYRK2 = target: T2, DYRK2 (Homo sapiens, UniProt Q92630); settings: DYRK2, 1 µM; read-out: Residual Activity (%)
T2 construct: purchased ProQinase
Method in brief: as §1

ZAP70 = target: T3, ZAP70 (Homo sapiens, UniProt P43403); settings: ZAP70, 1 µM; read-out: Residual Activity (%)
T3 construct: purchased ProQinase
Method in brief: as §1

CSK = target: T4, CSK (Homo sapiens, UniProt P41240); settings: read-out: Residual Activity (%)
T4 construct: purchased ProQinase
Method in brief: as §1

MET = target: T5, MET (Homo sapiens, UniProt P08581); settings: read-out: Residual Activity (%)
T5 construct: purchased ProQinase
Method in brief: as §1

CAMKK2 = target: T6, CAMKK2 (Homo sapiens, UniProt Q96RR4); settings: CAMKK2, 1 µM; read-out: Residual Activity (%)
T6 construct: purchased ProQinase
Method in brief: as §1

ACV-RL1 = target: T7, ACV-RL1 (Homo sapiens, UniProt P37023); settings: ACV-RL1, 1 µM; read-out: Residual Activity (%)
T7 construct: purchased ProQinase
Method in brief: as §1

B-RAF = target: T8, B-RAF (Homo sapiens, UniProt P15056); settings: read-out: Residual Activity (%)
T8 construct: purchased ProQinase
Method in brief: as §1

FYN = target: T9, FYN (Homo sapiens, UniProt P06241); settings: read-out: Residual Activity (%)
T9 construct: purchased ProQinase
Method in brief: as §1

CDK1/CycE1 = target: T10, CDK1/CycE1 (Homo sapiens, UniProt P06493); settings: CDK1/CycE1, 1 µM; read-out: Residual Activity (%)
T10 construct: purchased ProQinase
Method in brief: as §1

ACV-R1B = target: T11, ACV-R1B (Homo sapiens, UniProt P36896); settings: read-out: Residual Activity (%)
T11 construct: purchased ProQinase
Method in brief: as §1

PAK3 = target: T12, PAK3 (Homo sapiens, UniProt O75914); settings: PAK3, 1 µM; read-out: Residual Activity (%)
T12 construct: purchased ProQinase
Method in brief: as §1

MKNK2 = target: T13, MKNK2 (Homo sapiens, UniProt Q9HBH9); settings: MKNK2, 1 µM; read-out: Residual Activity (%)
T13 construct: purchased ProQinase
Method in brief: as §1

ERK5 = target: T14, ERK5 (Homo sapiens, UniProt Q13164); settings: ERK5, 1 µM; read-out: Residual Activity (%)
T14 construct: purchased ProQinase
Method in brief: as §1

ERBB2 = target: T15, ERBB2 (Homo sapiens, UniProt P04626); settings: ERBB2, 1 µM; read-out: Residual Activity (%)
T15 construct: purchased ProQinase
Method in brief: as §1

RPS6KA5 = target: T16, RPS6KA5 (Homo sapiens, UniProt O75582); settings: RPS6KA5, 1 µM; read-out: Residual Activity (%)
T16 construct: purchased ProQinase
Method in brief: as §1

TYRO3 = target: T17, TYRO3 (Homo sapiens, UniProt Q06418); settings: TYRO3, 1 µM; read-out: Residual Activity (%)
T17 construct: purchased ProQinase
Method in brief: as §1

FGF-R3 = target: T18, FGF-R3 (Homo sapiens, UniProt P22607); settings: FGF-R3, 1 µM; read-out: Residual Activity (%)
T18 construct: purchased ProQinase
Method in brief: as §1

GRK4 = target: T19, GRK4 (Homo sapiens, UniProt P32298); settings: GRK4, 1 µM; read-out: Residual Activity (%)
T19 construct: purchased ProQinase
Method in brief: as §1

FES = target: T20, FES (Homo sapiens, UniProt P07332); settings: read-out: Residual Activity (%)
T20 construct: purchased ProQinase
Method in brief: as §1

SGK2 = target: T21, SGK2 (Homo sapiens, UniProt Q9HBY8); settings: SGK2, 1 µM; read-out: Residual Activity (%)
T21 construct: purchased ProQinase
Method in brief: as §1

TSSK1 = target: T22, TSSK1 (Homo sapiens, UniProt Q9BXA7); settings: TSSK1, 1 µM; read-out: Residual Activity (%)
T22 construct: purchased ProQinase
Method in brief: as §1

PKC-epsilon = target: T23, PKC-epsilon (Homo sapiens, UniProt Q02156); settings: read-out: Residual Activity (%)
T23 construct: purchased ProQinase
Method in brief: as §1

CDK6/CycD3 = target: T24, CDK6/CycD3 (Homo sapiens, UniProt Q00534); settings: CDK6/CycD3, 1 µM; read-out: Residual Activity (%)
T24 construct: purchased ProQinase
Method in brief: as §1

PKC-mu = target: T25, PKC-mu (Homo sapiens, UniProt Q15139); settings: read-out: Residual Activity (%)
T25 construct: purchased ProQinase
Method in brief: as §1

TRK-C = target: T26, TRK-C (Homo sapiens, UniProt Q16288); settings: read-out: Residual Activity (%)
T26 construct: purchased ProQinase
Method in brief: as §1

PIM3 = target: T27, PIM3 (Homo sapiens, UniProt Q86V86); settings: PIM3, 1 µM; read-out: Residual Activity (%)
T27 construct: purchased ProQinase
Method in brief: as §1

AKT3 aa106-479 = target: T28, AKT3 aa106-479 (Homo sapiens, UniProt Q9Y243); settings: AKT3 aa106-479, 1 µM; read-out: Residual Activity (%)
T28 construct: purchased ProQinase
Method in brief: as §1

CK1-epsilon = target: T29, CK1-epsilon (Homo sapiens, UniProt P49674); settings: read-out: Residual Activity (%)
T29 construct: purchased ProQinase
Method in brief: as §1

PAK4 = target: T30, PAK4 (Homo sapiens, UniProt O96013); settings: PAK4, 1 µM; read-out: Residual Activity (%)
T30 construct: purchased ProQinase
Method in brief: as §1

T14 sequence (Q13164 whole entry): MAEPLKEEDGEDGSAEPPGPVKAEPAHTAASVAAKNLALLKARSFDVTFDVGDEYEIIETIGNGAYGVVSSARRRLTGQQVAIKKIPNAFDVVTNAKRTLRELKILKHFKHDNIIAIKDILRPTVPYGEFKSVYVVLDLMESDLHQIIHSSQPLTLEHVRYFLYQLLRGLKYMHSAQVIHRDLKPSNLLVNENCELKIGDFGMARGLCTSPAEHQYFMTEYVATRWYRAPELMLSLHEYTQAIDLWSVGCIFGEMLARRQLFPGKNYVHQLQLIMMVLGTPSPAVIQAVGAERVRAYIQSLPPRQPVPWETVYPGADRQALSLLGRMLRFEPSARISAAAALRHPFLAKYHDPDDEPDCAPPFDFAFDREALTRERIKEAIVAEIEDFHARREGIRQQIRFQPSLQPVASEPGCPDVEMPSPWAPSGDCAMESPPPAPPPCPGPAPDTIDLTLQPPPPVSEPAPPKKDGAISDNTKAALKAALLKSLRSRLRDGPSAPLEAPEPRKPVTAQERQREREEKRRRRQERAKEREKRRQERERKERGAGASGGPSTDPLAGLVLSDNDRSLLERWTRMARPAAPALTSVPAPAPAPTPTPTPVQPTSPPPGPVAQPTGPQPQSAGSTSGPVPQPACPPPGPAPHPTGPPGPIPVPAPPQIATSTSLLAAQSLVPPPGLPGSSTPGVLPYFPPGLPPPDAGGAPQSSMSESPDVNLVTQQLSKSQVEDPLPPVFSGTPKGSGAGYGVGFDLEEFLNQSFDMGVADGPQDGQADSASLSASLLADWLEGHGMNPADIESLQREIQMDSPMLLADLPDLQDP
T2 sequence (Q92630 whole entry): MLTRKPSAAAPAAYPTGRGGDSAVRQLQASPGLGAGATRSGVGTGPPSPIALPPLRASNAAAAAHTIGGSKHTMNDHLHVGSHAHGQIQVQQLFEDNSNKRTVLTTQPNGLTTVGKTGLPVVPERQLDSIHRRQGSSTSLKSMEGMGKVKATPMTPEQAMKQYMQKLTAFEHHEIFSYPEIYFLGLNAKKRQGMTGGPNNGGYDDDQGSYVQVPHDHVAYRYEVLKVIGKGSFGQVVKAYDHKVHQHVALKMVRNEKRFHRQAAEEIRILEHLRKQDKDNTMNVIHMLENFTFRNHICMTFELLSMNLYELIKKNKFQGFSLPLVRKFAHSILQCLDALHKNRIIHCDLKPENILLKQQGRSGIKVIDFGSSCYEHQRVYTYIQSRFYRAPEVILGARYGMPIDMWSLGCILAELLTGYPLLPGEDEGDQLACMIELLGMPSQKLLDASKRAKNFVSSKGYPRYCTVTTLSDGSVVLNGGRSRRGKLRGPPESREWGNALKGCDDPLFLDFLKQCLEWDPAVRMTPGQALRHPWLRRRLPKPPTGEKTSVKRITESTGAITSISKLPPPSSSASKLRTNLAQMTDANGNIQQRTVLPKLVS
T18 sequence (P22607 23-806): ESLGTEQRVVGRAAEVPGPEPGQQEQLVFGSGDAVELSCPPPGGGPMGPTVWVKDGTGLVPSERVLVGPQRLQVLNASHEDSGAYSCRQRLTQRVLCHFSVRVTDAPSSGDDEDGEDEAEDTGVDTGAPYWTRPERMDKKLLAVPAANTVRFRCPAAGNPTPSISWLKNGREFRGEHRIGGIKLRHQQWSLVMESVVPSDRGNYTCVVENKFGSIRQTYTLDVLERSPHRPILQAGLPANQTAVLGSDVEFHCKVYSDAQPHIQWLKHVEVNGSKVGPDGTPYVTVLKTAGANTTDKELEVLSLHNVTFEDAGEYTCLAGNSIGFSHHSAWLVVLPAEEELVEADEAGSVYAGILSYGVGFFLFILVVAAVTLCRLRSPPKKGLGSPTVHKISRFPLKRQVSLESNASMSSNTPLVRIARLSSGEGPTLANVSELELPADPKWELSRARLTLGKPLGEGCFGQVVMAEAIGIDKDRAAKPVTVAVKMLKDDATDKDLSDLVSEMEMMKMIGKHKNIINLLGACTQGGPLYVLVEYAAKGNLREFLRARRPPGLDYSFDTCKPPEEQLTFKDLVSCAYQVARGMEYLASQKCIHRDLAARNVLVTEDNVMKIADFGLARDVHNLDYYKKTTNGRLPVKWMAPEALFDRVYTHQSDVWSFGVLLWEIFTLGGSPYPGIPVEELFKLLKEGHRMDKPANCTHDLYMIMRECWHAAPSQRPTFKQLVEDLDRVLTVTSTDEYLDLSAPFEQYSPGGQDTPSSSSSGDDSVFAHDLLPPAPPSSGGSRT
T22 sequence (Q9BXA7 whole entry): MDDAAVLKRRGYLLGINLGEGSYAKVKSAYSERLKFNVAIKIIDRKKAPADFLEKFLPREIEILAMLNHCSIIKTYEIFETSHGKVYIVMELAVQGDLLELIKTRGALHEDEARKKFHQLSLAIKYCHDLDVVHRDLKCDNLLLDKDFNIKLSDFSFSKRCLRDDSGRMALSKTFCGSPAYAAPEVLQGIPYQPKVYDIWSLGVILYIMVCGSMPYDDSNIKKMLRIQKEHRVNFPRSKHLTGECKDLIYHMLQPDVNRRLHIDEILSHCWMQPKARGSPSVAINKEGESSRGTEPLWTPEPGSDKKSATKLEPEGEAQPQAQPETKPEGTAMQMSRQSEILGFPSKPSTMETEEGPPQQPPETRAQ
T9 sequence (P06241 whole entry): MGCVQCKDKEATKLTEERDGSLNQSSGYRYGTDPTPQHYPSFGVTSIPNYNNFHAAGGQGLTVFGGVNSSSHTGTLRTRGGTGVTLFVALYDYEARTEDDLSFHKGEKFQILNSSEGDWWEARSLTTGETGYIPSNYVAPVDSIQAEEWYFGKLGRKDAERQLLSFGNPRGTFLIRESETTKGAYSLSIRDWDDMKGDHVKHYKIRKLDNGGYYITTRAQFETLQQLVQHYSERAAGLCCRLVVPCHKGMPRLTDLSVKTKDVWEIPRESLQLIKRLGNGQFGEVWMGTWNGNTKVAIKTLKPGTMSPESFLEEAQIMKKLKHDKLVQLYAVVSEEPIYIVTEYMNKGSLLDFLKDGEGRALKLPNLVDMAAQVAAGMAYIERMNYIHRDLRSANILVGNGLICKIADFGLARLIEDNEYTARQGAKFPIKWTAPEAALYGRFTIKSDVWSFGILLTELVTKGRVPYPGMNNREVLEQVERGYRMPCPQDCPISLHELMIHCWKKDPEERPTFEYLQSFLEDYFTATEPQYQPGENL
T8 sequence (P15056 whole entry): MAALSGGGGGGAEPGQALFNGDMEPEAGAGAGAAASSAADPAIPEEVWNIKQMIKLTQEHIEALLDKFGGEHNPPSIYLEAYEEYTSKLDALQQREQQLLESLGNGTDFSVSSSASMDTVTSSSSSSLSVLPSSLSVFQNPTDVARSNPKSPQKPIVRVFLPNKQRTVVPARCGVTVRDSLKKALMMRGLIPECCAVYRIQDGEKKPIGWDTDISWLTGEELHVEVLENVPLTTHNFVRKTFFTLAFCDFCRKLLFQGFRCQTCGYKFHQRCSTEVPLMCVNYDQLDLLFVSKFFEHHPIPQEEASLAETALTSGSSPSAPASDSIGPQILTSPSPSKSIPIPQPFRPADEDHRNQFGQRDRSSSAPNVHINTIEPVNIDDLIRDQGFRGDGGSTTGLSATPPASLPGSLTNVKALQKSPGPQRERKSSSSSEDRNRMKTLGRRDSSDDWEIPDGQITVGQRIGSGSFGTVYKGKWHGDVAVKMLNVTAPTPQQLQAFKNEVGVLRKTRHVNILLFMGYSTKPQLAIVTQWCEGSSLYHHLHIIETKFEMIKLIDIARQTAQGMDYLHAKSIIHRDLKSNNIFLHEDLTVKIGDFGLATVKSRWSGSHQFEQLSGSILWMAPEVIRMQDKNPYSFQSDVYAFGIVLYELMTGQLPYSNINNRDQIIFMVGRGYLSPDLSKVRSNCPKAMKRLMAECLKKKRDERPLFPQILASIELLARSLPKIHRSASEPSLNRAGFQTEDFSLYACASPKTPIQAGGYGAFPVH
T17 sequence (Q06418 41-890): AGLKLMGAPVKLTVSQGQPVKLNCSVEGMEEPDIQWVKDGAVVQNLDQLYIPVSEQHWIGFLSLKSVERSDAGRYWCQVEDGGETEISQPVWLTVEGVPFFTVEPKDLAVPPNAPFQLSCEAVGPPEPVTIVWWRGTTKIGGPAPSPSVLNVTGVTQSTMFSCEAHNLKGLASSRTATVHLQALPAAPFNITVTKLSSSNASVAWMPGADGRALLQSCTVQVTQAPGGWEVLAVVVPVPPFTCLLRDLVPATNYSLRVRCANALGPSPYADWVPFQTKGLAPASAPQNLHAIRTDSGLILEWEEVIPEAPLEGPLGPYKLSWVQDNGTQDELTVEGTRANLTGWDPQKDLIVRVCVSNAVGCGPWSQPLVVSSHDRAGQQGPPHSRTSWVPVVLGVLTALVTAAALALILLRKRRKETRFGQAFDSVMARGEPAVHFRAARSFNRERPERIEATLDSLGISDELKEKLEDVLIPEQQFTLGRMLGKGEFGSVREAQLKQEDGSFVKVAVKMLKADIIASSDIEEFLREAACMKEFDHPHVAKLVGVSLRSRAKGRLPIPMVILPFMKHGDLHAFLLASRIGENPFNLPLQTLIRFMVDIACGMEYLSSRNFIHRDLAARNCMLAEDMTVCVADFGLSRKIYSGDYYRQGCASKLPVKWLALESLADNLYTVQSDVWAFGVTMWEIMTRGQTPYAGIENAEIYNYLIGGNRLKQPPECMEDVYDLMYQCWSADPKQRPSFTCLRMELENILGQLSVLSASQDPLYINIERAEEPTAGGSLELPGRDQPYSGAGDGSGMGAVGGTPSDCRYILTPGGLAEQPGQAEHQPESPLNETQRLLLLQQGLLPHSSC

## COc1ccc(-c2cc(C(=O)Nc3cc(-c4c(-c5ccc(F)cc5)noc4C(C)C)ccn3)n(CC3NCC(O)C3O)c2)cc1 (stereo not drawn) [29d]
CDC42BPA
  remaining activity at 1 µM: 100%
DYRK2
  remaining activity at 1 µM: 96%
ZAP70
  remaining activity at 1 µM: 116%
CSK
  remaining activity at 1 µM: 115%
MET
  remaining activity at 1 µM: 89%
CAMKK2
  remaining activity at 1 µM: 97%
ACV-RL1
  remaining activity at 1 µM: 115%
B-RAF
  remaining activity at 1 µM: 95%
FYN
  remaining activity at 1 µM: 156%
CDK1/CycE1
  remaining activity at 1 µM: 100%
ACV-R1B
  remaining activity at 1 µM: 103%
PAK3
  remaining activity at 1 µM: 81%
MKNK2
  remaining activity at 1 µM: 92%
ERK5
  remaining activity at 1 µM: 93%
ERBB2
  remaining activity at 1 µM: 121%
RPS6KA5
  remaining activity at 1 µM: 101%
TYRO3
  remaining activity at 1 µM: 115%
FGF-R3
  remaining activity at 1 µM: 118%
GRK4
  remaining activity at 1 µM: 111%
FES
  remaining activity at 1 µM: 120%
SGK2
  remaining activity at 1 µM: 101%
TSSK1
  remaining activity at 1 µM: 109%
PKC-epsilon
  remaining activity at 1 µM: 84%
CDK6/CycD3
  remaining activity at 1 µM: 98%
PKC-mu
  remaining activity at 1 µM: 94%
TRK-C
  remaining activity at 1 µM: 105%
PIM3
  remaining activity at 1 µM: 98%
AKT3 aa106-479
  remaining activity at 1 µM: 95%
CK1-epsilon
  remaining activity at 1 µM: 4%
PAK4
  remaining activity at 1 µM: 92%
